{"source": "patent EP4552639A1", "about": "“COMPOUNDS FOR USE IN THE TREATMENT OF GASTROINTESTINAL STROMAL TUMOR (GIST)” (priority 2023, dated 2025)", "tested_on": "KIT/PDGFRA-mutated cell lines", "experiment": "Cell viability assay (GR50)", "type": "cell-based", "settings": "Figure 2", "procedure": "Cell viability assays were performed as previously described (Grunewald, S., et al., Resistance to avapritinib in PDGFRA-driven GIST is caused by secondary mutations in the PDGFRA kinase domain. Cancer Discov, 2020). To generate the results presented in Figures 2 and 3, cells were plated at 4000-16000 cells/well in a 96-well plate and cultured overnight. Cells were then incubated in triplicates with media containing inhibitors or solvent control (DMSO) for 72 hours. The sulforhodamine B (SRB) assay was used according to the method of Skehan and colleagues (Skehan, P., et al., New colorimetric cytotoxicity assay for anticancer-drug screening. J.Natl.Cancer Inst., 1990. 82(13): p. 1107-1112).\nTo generate the results in for the KIT-driven cell lines (GIST-T1; T1-D816E, and T1-V654A) in Figures 1, 6, 7, and 8, cells were plated in triplicates at 400 cells/well in a 384-well plate with media containing inhibitors or solvent control (DMSO) and incubated for 72 hours. The Cell Titer Glo assay (Promega) was applied according to manufacturer's instructions. Absorption or luminescence was measured with a SPARK™ Plate reader (Tecan, Switzerland). One measurement of untreated cells at the at the start of treatment served as baseline for growth reduction (GR) calculations. […]"}
{"smiles": "NC(=O)Nc1cc(-c2cccc(F)c2)sc1C(=O)N[C@H]1CCCNC1", "note": "[Preparation Example 3a.1, (S)-5-(3-fluorophenyl)-N-(piperidin-3-yl)-3-ureidothiophene-2-carboxamide]", "values": [{"measurement": "cellular GR50 (concentration of a drug that reduces cell growth rate by half)", "result": "1 to 30", "unit": "nM"}]}
